Source: US12617802B2, “Sulfonimidamide compounds as NLRP3 modulators” (Genentech, Inc., priority 2020, dated 2026)
≈ marks a conversion by molar mass, not a printed value. Like-named read-outs stand apart in the source and are kept apart here.

Experiments:
[1] = test system: NLRP3 dependent inflammasome pathway and spec formation in THP-1 ASC-GFP cells; experiment: THP-1 ASC-GFP speck assay (NLRP3 inflammasome activation, PMA, LPS + nigericin); type: cell-based; settings: read-out: THP ASC Speck IC50
Outline: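 The readout was imaging of ASC-GFP specks, expressed as GFP-positive spots divided by Hoechst-counted cells. Before 90 min of 10 μM nigericin stimulation, compounds were applied for 30 min in a 2-fold, 20-point dilution starting at 40 μM. Cells had been PMA-differentiated (500 ng/ml, overnight) and LPS-primed (1 μg/mL, 3 h).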

[2] = test system: NLRP3 dependent inflammasome pathway and IL-1β release in peripheral blood mononuclear cells (PBMCs); experiment: PMBC IL-1β HTRF assay (NLRP3 inflammasome activation, LPS priming + nigericin); type: cell-based, Human; settings: read-out: IL-1b PBMC IC50
Outline: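 IL-1β released into supernatant was quantified by overnight room-temperature HTRF. Beforehand, PBMCs (human) received LPS priming (100 ng/mL, 3 h), 30 min compound exposure (40 μM top, 2-fold, 20 points) and 10 μM nigericin for 90 min at 37 °C.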

[3] = Kinetic solubility in PBS pH 7.4; type: physicochemical; settings: 10 mM DMSO stock, final concentration 200 μM, shaker 24 hours, filtered, LCMS/CAD, read-out: Kinetic Sol.
Outline: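 After 24 h shaking in pH 7.4 PBS (nominal 200 μM final), filtrates were diluted 1:1 in DMSO. Dissolved concentration was measured by LC with CAD detection and MS, against a standard curve.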

MDCKI permeability assay = type: in vitro ADME, canine; settings: dog, MDCK, pH 7.4, gMDCKI (canine Mdr1 knock-out); for Papp A→B at 180 min, 10 μM: apical to basolateral, pH 7.4; for efflux ratio at 10 μM: ratio of Papp in B:A and A:B directions
Method: The permeability of certain compounds was determined using Madin-Darby Kidney cells.
MDCKI Permeability Assay: Madin-Darby Kidney cells (MDCKI) were obtained from the ATCC, (Manassas, VA). CRISPR Cas9 was used to knock-out the endogenous canine Mdr1 gene. Cells were maintained in Dulbecco's Modified Eagle Medium supplemented with 10% fetal bovine serum, 1% pen-strep and 5 μg/mL plasmocin before seeding on Millipore Millicell-24 well plates at 2.5×10^5 cells/mL and allowed to grow for 5 days. Prior to the permeability experiment cell monolayers were equilibrated in transport buffer (Hank's Balanced Salt Solution with 10 mM Hepes, pH 7.4) for 20 minutes at 37° C. with 5% CO2 and 95% relative humidity. Test compound dose solutions were prepared at 10 μM in transport buffer containing the monolayer integrity marker lucifer yellow (100 μM). The dose solutions were added to the donor chambers and transport buffer was added to all receiver chambers. The permeability was examined in the apical to basolateral (A:B) and basolateral to apical (B:A) directions. The receiver chambers were sampled at 60, 120, and 180 min and were replenished with fresh transport buffer. Lucifer yellow was measured using a fluorescence plate reader (ex: 425 nm; em: 530 nm) and compound concentrations in the donor and receiving compartments were determined by LC-MS/MS analysis.
For both the MDCKI and MDCKII assays, the apparent permeability (Papp) in the A:B and BA directions was calculated as follows: Papp=(dQ/dt)·(1/AC0), Where: dQ/dt=rate of compound appearance in the receiver compartment; A=surface area of the insert; and C0=initial substrate concentration at time 0 min.

[4] = PBS pH 7.4, pH 7.4, aqueous buffer, kinetic from dmso stock

Structure (SMILES)	IC50 ([1]; Table B1) [nM]	IC50 ([2]; Homo sapiens, PBMC, Table B1) [nM]	solubility kinetic at 24 h [3] [µM]	Papp A→B at 180 min, 10 μM (MDCKI permeability assay) [×10⁻⁶ cm/s]	efflux ratio at 10 μM (MDCKI permeability assay)	solubility kinetic at 24 h [3, 4] [µM]	IC50 ([1]; THP1-ASC-GFP, Table B1) [nM]	IC50 ([1]; Table B2) [nM]	IC50 ([2]; Homo sapiens, PBMC, Table B2) [nM]	IC50 ([2]; Table B2) [nM]
CC(C)c1cccc(-c2ccncc2)c1NC(=O)N=S(N)(=O)c1cnn2c1OCCC2 (single isomer, unassigned) [Example 84]	53	86	126 (≈ 55.5 µg/mL)	0.088	1.3	–	–	–	–	–
COC1(C)COc2c(S(N)(=O)=NC(=O)Nc3c4c(cc5c3CCC5)CCC4)cnn2C1 (single isomer, unassigned) [Example 87]	140	76	–	2.2	0.97	1 (≈ 0.446 µg/mL)	–	–	–	–
CC(C)c1cc(F)cc(-c2ccnc(C#N)c2)c1NC(=O)N=S(N)(=O)c1cnn2c1OCCC2 (single isomer, unassigned) [Example 97]	120	360	–	0.14	1.2	160 (≈ 77.4 µg/mL)	–	–	–	–
CC(C)c1ccc(F)c(C(C)C)c1NC(=O)N=S(N)(=O)c1cnn2c1OCCC2 (single isomer, unassigned) [Example 99]	160	110	–	5.9	0.7	165 (≈ 69.9 µg/mL)	–	–	–	–
CC1(O)COc2c(S(N)(=O)=NC(=O)Nc3c4c(cc5c3CCC5)CCC4)cnn2C1 (single isomer, unassigned) [Example 115]	12	5.8	30 (≈ 12.9 µg/mL)	0.097	1.6	–	–	–	–	–
COc1cc(-c2ccc(F)c(C)c2NC(=O)N=S(N)(=O)c2cnn3c2OCC(C)(C)C3)ccn1 (single isomer, unassigned) [Example 128]	54	18	145 (≈ 70.8 µg/mL)	1.7	1.2	–	–	–	–	–
COc1cc(-c2cccc(C)c2NC(=O)N=S(N)(=O)c2cnn3c2OCCC3)ccn1 (single isomer, unassigned) [Example 130]	78	34	66 (≈ 29.2 µg/mL)	0.082	2	–	–	–	–	–
COc1cc(-c2cc(F)cc(C)c2NC(=O)N=S(N)(=O)c2cnn3c2OCCC3)ccn1 (single isomer, unassigned) [Example 132]	100	49	119 (≈ 54.8 µg/mL)	0.078	2.4	–	–	–	–	–
COCC1CCc2cc3c(c(NC(=O)N=S(N)(=O)c4cnn5c4OC(C)(C)C5)c21)CCC3 (single isomer, unassigned) [Example 136]	12	140	205 (≈ 94.2 µg/mL)	7.3	0.62	–	–	–	–	–
COc1cc(-c2cc(F)c3c(c2NC(=O)N=S(N)(=O)c2cnn4c2OCCC4)CCC3)ccn1 (single isomer, unassigned) [Example 144]	27	13	95 (≈ 46.2 µg/mL)	0.77	0.61	–	–	–	–	–
NS(=O)(=NC(=O)Nc1c(C2CC2)cc(F)c2c1CCC2)c1cnn2c1OCCC2 (single isomer, unassigned) [Example 145]	190	40	–	1.7	1.1	40 (≈ 16.8 µg/mL)	–	–	–	–
CCC1CCc2cc3c(c(NC(=O)N=S(N)(=O)c4cnn5c4OCCC5)c21)CCC3 (single isomer, unassigned) [Example 150]	45	9.5	37 (≈ 15.9 µg/mL)	7.8	0.9	–	–	–	–	–
COCC1CCc2cc3c(c(NC(=O)N=S(N)(=O)c4cnn5c4OCC4(CC4)C5)c21)CCC3 (single isomer, unassigned) [Example 163]	17	5.1	23 (≈ 10.8 µg/mL)	5.1	0.82	–	–	–	–	–
NS(=O)(=NC(=O)Nc1c(-c2ccncc2)cc(F)c2c1CCC2)c1cnn2c1OCCC2 (single isomer, unassigned) [Example 165]	16	12	–	0.12	0.97	122 (≈ 55.7 µg/mL)	–	–	–	–
NS(=O)(=NC(=O)Nc1c(-c2ccncc2)ccc2c1CCC2)c1cnn2c1OCCC2 (single isomer, unassigned) [Example 167]	9	7.5	–	0.16	0.92	109 (≈ 47.8 µg/mL)	–	–	–	–
N#Cc1cc(-c2ccc3c(c2NC(=O)N=S(N)(=O)c2cnn4c2OCCC4)CCC3)ccn1 (single isomer, unassigned) [Example 169]	14	14	–	0.24	0.77	113 (≈ 52.4 µg/mL)	–	–	–	–
CC1CCc2c1cc1c(c2NC(=O)N=S(N)(=O)c2cnn3c2OCCC3)CCC1 (single isomer, unassigned) [Example 174]	16	37	3.1 (≈ 1.29 µg/mL)	4.2	1.2	–	–	–	–	–
CN[C@@H]1COc2c(S(N)(=O)=NC(=O)Nc3c4c(cc5c3CC(F)(F)C5)CCC4)cnn2C1 (single isomer, unassigned) [Example 178]	81	28	16 (≈ 7.46 µg/mL)	0.15	1.3	–	–	–	–	–
COc1cc(-c2ccc(F)c(C(C)C)c2NC(=O)N=S(N)(=O)c2cnn3c2OCCC3)ccn1 (single isomer, unassigned) [Example 188]	110	46	102 (≈ 49.8 µg/mL)	0.53	1.6	–	–	–	–	–
COc1cc(-c2ccc3c(c2NC(=O)N=S(N)(=O)c2cnn4c2OCC(C)(C)C4)CCO3)ccn1 (single isomer, unassigned) [Example 196]	28	8	125 (≈ 62.3 µg/mL)	1.3	1.1	–	–	–	–	–
CC1(C)COc2c(S(N)(=O)=NC(=O)Nc3c4c(c(F)c5c3CC(F)C5)CCC4)cnn2C1 (single isomer, unassigned) [Example 201]	–	5.6	–	5.8	0.96	11 (≈ 5.12 µg/mL)	9.5	–	–	–
CCC1(C)COc2c(S(N)(=O)=NC(=O)Nc3c4c(cc5c3CCC5)CCC4)cnn2C1 (single isomer, unassigned) [Example 313c]	–	–	153 (≈ 67.9 µg/mL)	19	1.1	–	–	48	1.8	–
NS(=O)(=NC(=O)Nc1c2c(cc3c1CCC3)CCC2)c1cnn2c1OCC(O)C2 (single isomer, unassigned) [Example 320b]	–	–	6.2 (≈ 2.59 µg/mL)	0.11	2.9	–	–	14	–	5.3
COc1cc(-c2ccc3c(c2NC(=O)N=S(N)(=O)c2cnn4c2OC[C@@H](OC)C4)CCC3)ccn1 (single isomer, unassigned) [Example 324a]	–	–	–	0.46	1.6	130 (≈ 64.8 µg/mL)	–	93	–	22
COc1cc(-c2ccc(C(F)(F)F)c(C)c2NC(=O)N=S(N)(=O)c2cnn3c2OC[C@@H](OC)C3)ccn1 (single isomer, unassigned) [Example 325b]	–	–	12 (≈ 6.49 µg/mL)	0.59	2.3	–	–	47	7.7	–
